Laboratory results from US11141455B2, “Peptide analogues with branched amino acid probe(s)” (priority 2014, dated 2021).

Legend:
human GLP-1 receptor = molecular target: T1, human GLP-1 receptor (Homo sapiens, UniProt P43220); assay: cAMP production (HTRF) in CHO-K1 cells expressing GLP-1 receptor; type: cell-based
T1 construct: expressed in transfected cells; host or cells: CHO-K1 cells

human GLP-2 receptor = molecular target: T2, human GLP-2 receptor (Homo sapiens, UniProt O95838); assay: cAMP production (HTRF) in CHO-K1 cells expressing GLP-2 receptor; type: cell-based; details: for Emax: CHO-K1, control peptide GLP-2 (1-34), read-out: Max efficacy in % of control peptide; for Emax / EC50: cAMP; for EC50: CHO-K1 human GLP-2 receptor
T2 construct: expressed in transfected cells; host or cells: CHO-K1 cells
T2 sequence (O95838 1-553): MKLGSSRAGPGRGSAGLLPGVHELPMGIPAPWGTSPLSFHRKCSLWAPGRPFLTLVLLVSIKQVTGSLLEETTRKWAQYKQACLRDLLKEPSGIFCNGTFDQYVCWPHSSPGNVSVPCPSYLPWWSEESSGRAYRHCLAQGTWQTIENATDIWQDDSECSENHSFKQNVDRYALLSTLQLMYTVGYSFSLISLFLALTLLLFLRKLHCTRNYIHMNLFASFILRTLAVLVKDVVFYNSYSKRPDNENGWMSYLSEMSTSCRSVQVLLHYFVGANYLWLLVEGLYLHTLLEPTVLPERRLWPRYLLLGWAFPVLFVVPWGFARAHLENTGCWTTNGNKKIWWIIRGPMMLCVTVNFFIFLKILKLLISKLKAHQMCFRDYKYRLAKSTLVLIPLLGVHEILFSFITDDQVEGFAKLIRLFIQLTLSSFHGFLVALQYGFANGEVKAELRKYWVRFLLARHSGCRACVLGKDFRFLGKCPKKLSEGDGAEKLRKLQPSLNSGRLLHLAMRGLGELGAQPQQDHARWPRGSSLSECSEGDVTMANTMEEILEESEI
Description: CHO-K1 cells expressing the human GLP-2 receptor grown in media without antibiotic were detached by gentle flushing with PBS-EDTA (5 mM EDTA), recovered by centrifugation and resuspended in assay buffer (KRH: 5 mM KCl, 1.25 mM MgSO4, 124 mM NaCl, 25 mM HEPES, 13.3 mM Glucose, 1.25 mM KH2PO4, 1.45 mM CaCl2), 0.5 g/l BSA).
12 μl of cells were mixed with 12 μl of the test compound (solubilized in PBS/0.5% BSA and finally diluted from a stock solution of 1 mM) at increasing concentrations in 96 wells plates and then incubated 30 min at room temperature. cAMP production was determined after addition of a lysis buffer and 1 hour incubation, by use of competitive immunoassay using cryptate-labeled anti-cAMP and d2-labeled cAMP (HTRF kit from CisBio) with Delta F percentage values calculated according to the manufacturer specification. Dose response curves were performed in parallel with test compounds, and reference compounds.
The HTRF technology is a titration assay based on a competition between labeled cAMP (exogenous) and cAMP produced by the cell after activation of the […]. The dynamic range of the assay was 3-4 fold meaning that the linear range (which enables conversion from raw data to nM of cAMP) is within that range. […] All experiments were conducted in the presence of the non-selective phosphodiesterase inhibitor IBMX (1 mM in final concentration).
The test compounds were tested in a concentration range from […] to 10^−7M
Data is presented as mean values.

FPR2 receptor = molecular target: T3, FPR2 receptor (Homo sapiens, UniProt P25090); details: cited from earlier work
T3 sequence (P25090 1-351): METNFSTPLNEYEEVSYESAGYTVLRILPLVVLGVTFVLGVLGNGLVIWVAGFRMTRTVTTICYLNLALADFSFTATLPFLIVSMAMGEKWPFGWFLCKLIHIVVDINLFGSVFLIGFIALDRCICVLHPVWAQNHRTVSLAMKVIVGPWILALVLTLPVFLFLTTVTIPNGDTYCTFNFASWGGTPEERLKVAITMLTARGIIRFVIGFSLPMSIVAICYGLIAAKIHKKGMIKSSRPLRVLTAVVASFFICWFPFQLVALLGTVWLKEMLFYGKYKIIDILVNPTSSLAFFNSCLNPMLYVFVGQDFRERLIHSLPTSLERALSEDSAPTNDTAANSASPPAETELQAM

T1 sequence (P43220 24-463): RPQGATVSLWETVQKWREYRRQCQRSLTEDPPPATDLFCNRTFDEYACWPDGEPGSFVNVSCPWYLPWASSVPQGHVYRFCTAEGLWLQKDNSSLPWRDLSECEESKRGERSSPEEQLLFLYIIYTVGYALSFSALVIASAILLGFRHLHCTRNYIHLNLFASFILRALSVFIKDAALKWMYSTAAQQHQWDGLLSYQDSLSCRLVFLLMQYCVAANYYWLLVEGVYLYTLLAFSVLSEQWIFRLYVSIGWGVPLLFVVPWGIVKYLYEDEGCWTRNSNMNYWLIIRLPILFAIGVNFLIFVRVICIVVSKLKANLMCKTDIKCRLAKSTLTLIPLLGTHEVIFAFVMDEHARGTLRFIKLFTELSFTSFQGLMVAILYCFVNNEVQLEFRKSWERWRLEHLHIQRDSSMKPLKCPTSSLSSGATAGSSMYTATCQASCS

| Molecule | Emax (human GLP-2 receptor) | EC50 (human GLP-2 receptor) | also measured |
| --- | --- | --- | --- |
| CC[C@H](C)[C@H](NC(=O)[C@H](Cc1ccccc1)NC(=O)[C@H](CCC(=O)O)NC(=O)[C@H](CCCCN)NC(=O)[C@H](C)NC(=O)[C@H](C)NC(=O)[C@H](CCC(N)=O)NC(=O)CNC(=O)[C@H](CCC(=O)O)NC(=O)[C@H](CC(C)C)NC(=O)[C@H](Cc1ccc(O)cc1)NC(=O)[C@H](CO)NC(=O)[C@H](CO)NC(=O)[C@@H](NC(=O)[C@H](CC(=O)O)NC(=O)[C@H](CO)NC(=O)[C@@H](NC(=O)[C@H](Cc1ccccc1)NC(=O)[C@@H](NC(=O)CNC(=O)[C@H](CCC(=O)O)NC(=O)CNC(=O)[C@H](Cc1c[nH]cn1)NC(C)=O)[C@@H](C)O)[C@@H](C)O)C(C)C)C(=O)N[C@@H](C)C(=O)N[C@@H](Cc1c[nH]c2ccccc12)C(=O)N[C@@H](CC(C)C)C(=O)N[C@H](C(=O)N[C@@H](CCCCN)C(=O)NCC(=O)N[C@@H](CCCNC(=N)N)C(=O)NCC(=O)N[C@@H](CCCCNC(=O)[C@H](CCCCN)NC(=O)[C@H](CCCCN)NC(C)=O)C(N)=O)C(C)C [Analogue 2] |  |  | EC50 (human GLP-1 receptor): 0.04 nM; Emax (human GLP-1 receptor; CHO-K1, read-out: Max efficacy in % of control peptide): 102% |
| CC[C@H](C)[C@H](NC(=O)[C@H](Cc1ccccc1)NC(=O)[C@H](CC(=O)O)NC(=O)[C@H](CCCNC(=N)N)NC(=O)[C@H](C)NC(=O)[C@H](C)NC(=O)[C@H](CC(C)C)NC(=O)[C@H](CC(N)=O)NC(=O)[C@H](CC(=O)O)NC(=O)[C@H](CC(C)C)NC(=O)[C@@H](NC(=O)[C@@H](NC(=O)[C@H](CC(N)=O)NC(=O)[C@H](CCSC)NC(=O)[C@H](CCC(=O)O)NC(=O)[C@H](CC(=O)O)NC(=O)[C@H](CO)NC(=O)[C@H](Cc1ccccc1)NC(=O)[C@H](CO)NC(=O)CNC(=O)[C@H](CC(=O)O)NC(=O)[C@H](C)NC(=O)[C@@H](N)Cc1c[nH]cn1)[C@@H](C)O)[C@@H](C)CC)C(=O)N[C@@H](CC(N)=O)C(=O)N[C@@H](Cc1c[nH]c2ccccc12)C(=O)N[C@@H](CC(C)C)C(=O)N[C@H](C(=O)N[C@@H](CCC(N)=O)C(=O)N[C@H](C(=O)N[C@@H](CCCCN)C(=O)N[C@H](C(=O)N[C@H](C(=O)N[C@@H](CC(=O)O)C(=O)N[C@@H](CCCNC(=N)N)C(=O)O)[C@@H](C)O)[C@@H](C)CC)[C@@H](C)O)[C@@H](C)CC [GLP-2 (1-34), reference compound] |  |  | Hill Slope (human GLP-2 receptor; cAMP dose response curve): 0.78 |
| Ac-Ala-Met-Val-Ser-Glu-Phe-Leu-Lys-Gln-Ala-Trp-NH2 (Ac-AMVSEFLKQAW-NH2; listed as Homo sapiens) [Control peptide 2] |  |  | agonism at the FPR2 receptor as described in the literature (FPR2 receptor): described as agonist to the FPR2 receptor- none of them as significantly potent |
| Ac-Ala-Met-Val-Ser-Glu-Phe-Leu-Lys-Gln-Ala-Trp-Phe-Ile-Glu-Asn-Glu-Glu-Gln-Glu-Tyr-Val-Gln-Thr-Val-Lys-OH (Ac-AMVSEFLKQAWFIENEEQEYVQTVK-OH; listed as Homo sapiens) [Control peptide 1] |  |  | agonism at the FPR2 receptor as described in the literature (FPR2 receptor): described as agonist to the FPR2 receptor- none of them as significantly potent |

Second part, led by results:

| Emax (human GLP-2 receptor) | EC50 (human GLP-2 receptor) | Molecule | also measured |
| --- | --- | --- | --- |
| 101% | 3.4 nM | CC[C@H](C)[C@H](NC(=O)[C@H](Cc1ccccc1)NC(=O)[C@H](CC(=O)O)NC(=O)[C@H](CCCNC(=N)N)NC(=O)[C@H](C)NC(=O)[C@H](C)NC(=O)[C@H](CC(C)C)NC(=O)[C@H](CC(N)=O)NC(=O)[C@H](CC(=O)O)NC(=O)[C@H](CC(C)C)NC(=O)[C@@H](NC(=O)[C@@H](NC(=O)[C@H](CC(N)=O)NC(=O)[C@H](CCSC)NC(=O)[C@H](CCC(=O)O)NC(=O)[C@H](CC(=O)O)NC(=O)[C@H](CO)NC(=O)[C@H](Cc1ccccc1)NC(=O)[C@H](CO)NC(=O)CNC(=O)[C@H](CC(=O)O)NC(=O)[C@H](C)NC(=O)[C@H](Cc1c[nH]cn1)NC(C)=O)[C@@H](C)O)[C@@H](C)CC)C(=O)N[C@@H](CC(N)=O)C(=O)N[C@@H](Cc1c[nH]c2ccccc12)C(=O)N[C@@H](CC(C)C)C(=O)N[C@H](C(=O)N[C@@H](CCC(N)=O)C(=O)N[C@H](C(=O)N[C@@H](CCCCN)C(=O)N[C@H](C(=O)N[C@H](C(=O)N[C@@H](CC(=O)O)C(=O)N[C@@H](CCCCNC(=O)[C@H](CCCCN)NC(=O)[C@H](CCCCN)NC(C)=O)C(N)=O)[C@@H](C)O)[C@@H](C)CC)[C@@H](C)O)[C@@H](C)CC [Analogue 3] |  |
| 102% | 5.9 nM | CC[C@H](C)[C@H](NC(=O)[C@H](Cc1ccccc1)NC(=O)[C@H](CC(=O)O)NC(=O)[C@H](CCCNC(=N)N)NC(=O)[C@H](C)NC(=O)[C@H](C)NC(=O)[C@H](CC(C)C)NC(=O)[C@H](CC(N)=O)NC(=O)[C@H](CC(=O)O)NC(=O)[C@H](CC(C)C)NC(=O)[C@@H](NC(=O)[C@@H](NC(=O)[C@H](CC(N)=O)NC(=O)[C@H](CCSC)NC(=O)[C@H](CCC(=O)O)NC(=O)[C@H](CC(=O)O)NC(=O)[C@H](CO)NC(=O)[C@H](Cc1ccccc1)NC(=O)[C@H](CO)NC(=O)CNC(=O)[C@H](CC(=O)O)NC(=O)CNC(=O)[C@H](Cc1c[nH]cn1)NC(C)=O)[C@@H](C)O)[C@@H](C)CC)C(=O)N[C@@H](CC(N)=O)C(=O)N[C@@H](Cc1c[nH]c2ccccc12)C(=O)N[C@@H](CC(C)C)C(=O)N[C@H](C(=O)N[C@@H](CCC(N)=O)C(=O)N[C@H](C(=O)N[C@@H](CCCCN)C(=O)N[C@H](C(=O)N[C@H](C(=O)N[C@@H](CC(=O)O)C(=O)N[C@@H](CCCCNC(=O)[C@H](CCCCN)NC(=O)[C@H](CCCCN)NC(C)=O)C(N)=O)[C@@H](C)O)[C@@H](C)CC)[C@@H](C)O)[C@@H](C)CC [Analogue 4] |  |
| 95.1% | 8.9 nM | CC[C@H](C)[C@H](NC(=O)[C@H](Cc1ccccc1)NC(=O)[C@H](CC(=O)O)NC(=O)[C@H](CCCNC(=N)N)NC(=O)[C@H](C)NC(=O)[C@H](C)NC(=O)[C@H](CC(C)C)NC(=O)[C@H](CC(N)=O)NC(=O)[C@H](CC(=O)O)NC(=O)[C@H](CC(C)C)NC(=O)[C@@H](NC(=O)[C@@H](NC(=O)[C@H](CC(N)=O)NC(=O)[C@H](CCSC)NC(=O)[C@H](CCC(=O)O)NC(=O)[C@H](CC(=O)O)NC(=O)[C@H](CO)NC(=O)[C@H](Cc1ccccc1)NC(=O)[C@H](CO)NC(=O)CNC(=O)[C@H](CC(=O)O)NC(=O)[C@@H](C)NC(=O)[C@H](Cc1c[nH]cn1)NC(C)=O)[C@@H](C)O)[C@@H](C)CC)C(=O)N[C@@H](CC(N)=O)C(=O)N[C@@H](Cc1c[nH]c2ccccc12)C(=O)N[C@@H](CC(C)C)C(=O)N[C@H](C(=O)N[C@@H](CCC(N)=O)C(=O)N[C@H](C(=O)N[C@@H](CCCCN)C(=O)N[C@H](C(=O)N[C@H](C(=O)N[C@@H](CC(=O)O)C(=O)N[C@@H](CCCCNC(=O)[C@H](CCCCN)NC(=O)[C@H](CCCCN)NC(C)=O)C(N)=O)[C@@H](C)O)[C@@H](C)CC)[C@@H](C)O)[C@@H](C)CC [Analogue 5] |  |
